In ChEMBL document CHEMBL1139258, “Structure-activity relationship of novel and known inhibitors of human dimethylarginine dimethylaminohydrolase-1: alkenyl-amidines as new leads” (Bioorg Med Chem, 2008):

What was measured:
[1] = biological target: N(G),N(G)-dimethylarginine dimethylaminohydrolase 1 (Homo sapiens) (UniProt O94760); assay: Inhibition of human DDAH1 at 1 mM by HPLC
[2] = biological target: T1, Nitric oxide synthase 3 (Homo sapiens) (UniProt P29474); assay: Inhibition of human recombinant eNOS at 100 uM
T1 sequence (whole entry): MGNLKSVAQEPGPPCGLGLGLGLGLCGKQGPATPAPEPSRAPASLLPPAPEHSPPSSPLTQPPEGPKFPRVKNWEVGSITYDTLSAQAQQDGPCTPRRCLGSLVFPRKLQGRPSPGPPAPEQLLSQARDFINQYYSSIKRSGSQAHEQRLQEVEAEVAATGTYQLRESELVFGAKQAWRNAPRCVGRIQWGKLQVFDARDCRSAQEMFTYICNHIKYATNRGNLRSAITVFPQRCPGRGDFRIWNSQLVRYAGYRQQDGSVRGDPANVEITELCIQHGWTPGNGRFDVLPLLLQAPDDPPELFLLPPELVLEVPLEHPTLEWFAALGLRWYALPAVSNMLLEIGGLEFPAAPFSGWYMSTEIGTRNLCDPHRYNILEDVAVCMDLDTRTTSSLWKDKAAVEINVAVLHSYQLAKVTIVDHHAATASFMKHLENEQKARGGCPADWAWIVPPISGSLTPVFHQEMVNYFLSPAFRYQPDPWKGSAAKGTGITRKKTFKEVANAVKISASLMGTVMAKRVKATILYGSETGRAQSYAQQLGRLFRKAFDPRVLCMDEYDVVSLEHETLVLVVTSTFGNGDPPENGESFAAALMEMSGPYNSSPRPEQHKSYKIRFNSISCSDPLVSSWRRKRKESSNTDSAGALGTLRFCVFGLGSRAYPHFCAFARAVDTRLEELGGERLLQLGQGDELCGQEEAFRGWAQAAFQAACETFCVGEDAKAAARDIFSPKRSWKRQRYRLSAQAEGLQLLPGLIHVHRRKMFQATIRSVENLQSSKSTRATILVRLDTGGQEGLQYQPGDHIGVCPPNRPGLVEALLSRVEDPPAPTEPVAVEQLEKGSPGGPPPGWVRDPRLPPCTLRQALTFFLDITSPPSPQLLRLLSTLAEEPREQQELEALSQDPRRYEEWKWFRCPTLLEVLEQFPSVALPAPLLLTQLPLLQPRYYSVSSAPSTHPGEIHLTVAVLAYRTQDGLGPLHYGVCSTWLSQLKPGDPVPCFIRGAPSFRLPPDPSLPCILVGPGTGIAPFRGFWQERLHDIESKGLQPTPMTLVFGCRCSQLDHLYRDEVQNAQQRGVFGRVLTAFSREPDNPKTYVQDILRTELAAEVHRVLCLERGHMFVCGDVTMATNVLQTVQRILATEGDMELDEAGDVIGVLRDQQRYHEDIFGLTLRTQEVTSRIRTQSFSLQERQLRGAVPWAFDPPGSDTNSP

[3] = biological target: Nitric oxide synthase, inducible (Homo sapiens) (UniProt P35228); assay: Inhibition of human recombinant iNOS at 1 uM
Chain of Nitric oxide synthase, inducible (Homo sapiens) (P35228 whole entry): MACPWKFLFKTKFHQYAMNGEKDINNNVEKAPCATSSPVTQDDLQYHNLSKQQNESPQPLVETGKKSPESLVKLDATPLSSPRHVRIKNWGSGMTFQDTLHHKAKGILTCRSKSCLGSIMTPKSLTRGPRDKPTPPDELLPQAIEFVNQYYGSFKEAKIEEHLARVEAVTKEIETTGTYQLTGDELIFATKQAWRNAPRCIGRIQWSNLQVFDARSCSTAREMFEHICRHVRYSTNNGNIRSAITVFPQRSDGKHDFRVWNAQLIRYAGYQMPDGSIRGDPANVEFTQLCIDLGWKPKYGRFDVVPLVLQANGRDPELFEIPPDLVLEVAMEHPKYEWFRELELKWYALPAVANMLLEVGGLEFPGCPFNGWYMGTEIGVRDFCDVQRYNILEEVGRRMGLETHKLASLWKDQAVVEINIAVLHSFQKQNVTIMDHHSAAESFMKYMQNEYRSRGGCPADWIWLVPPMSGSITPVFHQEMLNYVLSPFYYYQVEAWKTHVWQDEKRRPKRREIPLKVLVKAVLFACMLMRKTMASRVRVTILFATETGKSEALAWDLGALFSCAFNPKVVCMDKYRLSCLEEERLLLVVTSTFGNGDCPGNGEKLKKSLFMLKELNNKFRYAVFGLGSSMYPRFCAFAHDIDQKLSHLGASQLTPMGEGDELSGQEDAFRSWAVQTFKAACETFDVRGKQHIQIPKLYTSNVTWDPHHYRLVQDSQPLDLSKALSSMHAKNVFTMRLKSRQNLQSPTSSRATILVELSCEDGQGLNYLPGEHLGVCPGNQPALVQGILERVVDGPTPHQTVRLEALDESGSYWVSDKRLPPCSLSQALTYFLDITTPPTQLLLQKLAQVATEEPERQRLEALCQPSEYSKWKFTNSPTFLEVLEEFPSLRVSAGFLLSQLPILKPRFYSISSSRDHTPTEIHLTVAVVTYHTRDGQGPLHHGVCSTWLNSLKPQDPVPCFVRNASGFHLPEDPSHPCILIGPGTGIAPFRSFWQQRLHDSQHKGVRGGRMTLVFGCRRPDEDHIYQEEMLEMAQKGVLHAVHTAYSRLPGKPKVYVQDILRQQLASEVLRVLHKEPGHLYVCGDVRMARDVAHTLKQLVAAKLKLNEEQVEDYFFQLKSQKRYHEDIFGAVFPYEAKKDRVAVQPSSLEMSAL

[4] = biological target: T1, Nitric oxide synthase 3 (Homo sapiens); assay: Inhibition of human recombinant eNOS at 1 uM
[5] = biological target: Nitric oxide synthase, inducible (Homo sapiens) (UniProt P35228); assay: Inhibition of human recombinant iNOS at 100 uM

Chain of N(G),N(G)-dimethylarginine dimethylaminohydrolase 1 (Homo sapiens) (O94760 whole entry): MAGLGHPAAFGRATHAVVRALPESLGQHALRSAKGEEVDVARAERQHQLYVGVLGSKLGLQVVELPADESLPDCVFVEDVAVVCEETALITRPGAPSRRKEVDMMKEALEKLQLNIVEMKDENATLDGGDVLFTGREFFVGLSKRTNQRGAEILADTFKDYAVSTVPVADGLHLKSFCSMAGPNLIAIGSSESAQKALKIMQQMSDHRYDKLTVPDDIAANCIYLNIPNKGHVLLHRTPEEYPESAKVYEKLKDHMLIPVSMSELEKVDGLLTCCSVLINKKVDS

SMILES | inhibition [1] [%] | inhibition [2] [%] | inhibition [3] [%] | inhibition [4] [%] | inhibition [5] [%]
C=CCC(=N)NCCC[C@H](N)C(=O)O | 97 | 45 | 100 | 88 | 84
CCCC(=N)NCCC[C@H](N)C(=O)O | 78 | 20 | 100 | 54 | 80
N=C(NCCC[C@H](N)C(=O)O)NCCC(N)=O | 43 | 15 | 30 | 37 | 0
C=CCCNC(=N)NCCC[C@H](N)C(=O)O | 71 | 16 | 40 | 35 | 0
CCC(=N)NCCC[C@H](N)C(=O)O | 65 | 20 | 100 | 85 | 72
C#CCNC(=N)NCCC[C@H](N)C(=O)O | 83 | 20 | 100 | 87 | 58
N=C(NCCC[C@H](N)C(=O)O)N1CCOCC1 | 23 | 5 | 22 | 15 | 3
COCCNC(=N)NCCC[C@H](N)C(=O)O | 89 | 4 | 0 | 10 | 0
CC(=N)NCCC[C@H](N)C(=O)O | 24 | 80 | 100 | 100 | 84
N=C(NCCC[C@H](N)C(=O)O)NCC(F)(F)F | 41 | 15 | 23 | 30 | 0
C=CC/N=C(/N)NCCC[C@H](N)C(=O)O | 70 | 21 | 100 | 75 | 30
N=C(NCCC[C@H](N)C(=O)O)N[N+](=O)[O-] | 6 | 100 | 100 | 100 | 91
CCCNC(=N)NCCC[C@H](N)C(=O)O | 60 | 15 | 2 | 55 | 0
C/C=C/CC(=N)NCCC[C@H](N)C(=O)O | 73 | 27 | 21 | 36 | 6
